Here are results for 2 substances from patent publication US8338348B2, “Skin cleansing compositions with polyglycerol esters and hydrophobically modified polymers” (Johnson & Johnson Consumer Companies, Inc., priority 2010, dated 2012).

The test system of this data set is EpiDerm™ Skin Model. Nature of the data set: Skin Irritancy Potential Test via in vitro skin equivalents (IL-1α release). The data set is classed as cell-based, human. The conditions noted are these: Table 12; vs C30. An excerpt: The EpiDerm™ Skin Model provided by MatTek Corporation was used in this study. The target cells are epithelial, derived from human skin. The test materials are applied directly to the culture surface, at air interface, so that undiluted and/or end use dilutions can be tested directly.
The experimental design used in this study consisted of a definitive assay to determine the release of one cytokine. Where tissue viability is not decreased by 50% as compared to the negative control tissue (as measured by MTT reduction), the inflammatory potential is then measured by the synthesis/release of the cytokine IL-1α.
In the treatment phase six skin equivalents are used for each diluted test product, individual results are averaged to provide overall response. 100 μl is applied to each equivalent for 1 hour of diluted product (10% dilution) exposure followed by 5 rinses of Ca, Mg Free PBS solution. Each Tissue is placed in a 6 well tray with assay medium for each rinse and returned to incubation for 24 hours. Following incubation tissues are assessed for cytokine responses of IL-1α.

On to Polyglycerol-10-Myristate [PG-10-M], for which the “effect of PGE on mildness of the surfactant system” value is listed as “improve the mildness”.

Take Polyglycerol-10-Oleate [PG-10-O]: the “effect of PGE on mildness of the surfactant system” value is “improve the mildness”.
